# According to publication PMC2978156 (Neuron, 2010):
# Key:
# Assay type in all cases: biochemical
# VGLUT2 [1] = target: T1, VGLUT2 (Rattus norvegicus, UniProt Q9JI12); assay: Val-evoked [3H]L-glutamate uptake by proteoliposomes, […] min; settings: 10 mM Cl-, 100 uM L-glutamate, pH 7.0, 27 C
# T1 sequence (Q9JI12 1-582): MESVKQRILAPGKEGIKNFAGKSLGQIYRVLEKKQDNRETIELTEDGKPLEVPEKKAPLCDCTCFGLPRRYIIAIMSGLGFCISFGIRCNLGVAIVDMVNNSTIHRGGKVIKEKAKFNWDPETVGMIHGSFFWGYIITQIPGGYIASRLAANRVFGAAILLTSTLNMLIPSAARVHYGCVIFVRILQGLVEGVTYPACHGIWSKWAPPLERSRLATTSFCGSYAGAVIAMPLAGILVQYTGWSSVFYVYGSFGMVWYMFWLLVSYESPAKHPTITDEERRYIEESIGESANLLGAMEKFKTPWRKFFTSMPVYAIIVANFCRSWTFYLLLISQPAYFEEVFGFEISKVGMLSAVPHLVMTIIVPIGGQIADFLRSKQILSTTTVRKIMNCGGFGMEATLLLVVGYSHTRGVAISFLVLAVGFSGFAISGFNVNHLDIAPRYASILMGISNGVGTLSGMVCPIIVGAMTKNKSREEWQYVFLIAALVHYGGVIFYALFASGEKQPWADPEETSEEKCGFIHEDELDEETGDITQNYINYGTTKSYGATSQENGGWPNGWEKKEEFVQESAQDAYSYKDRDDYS
# VGLUT2 [2] = target: T1, VGLUT2; assay: as above; settings: 10 mM Cl-, pH 7.0, 27 C
# VMAT2 = VMAT2 (Rattus norvegicus, UniProt Q01827); assay: pH-driven [3H]serotonin uptake by proteoliposomes; settings: 10 mM Cl-, 10 uM serotonin, pH 7.0 outside; inactive
# Sequence of VMAT2 (Q01827 whole entry): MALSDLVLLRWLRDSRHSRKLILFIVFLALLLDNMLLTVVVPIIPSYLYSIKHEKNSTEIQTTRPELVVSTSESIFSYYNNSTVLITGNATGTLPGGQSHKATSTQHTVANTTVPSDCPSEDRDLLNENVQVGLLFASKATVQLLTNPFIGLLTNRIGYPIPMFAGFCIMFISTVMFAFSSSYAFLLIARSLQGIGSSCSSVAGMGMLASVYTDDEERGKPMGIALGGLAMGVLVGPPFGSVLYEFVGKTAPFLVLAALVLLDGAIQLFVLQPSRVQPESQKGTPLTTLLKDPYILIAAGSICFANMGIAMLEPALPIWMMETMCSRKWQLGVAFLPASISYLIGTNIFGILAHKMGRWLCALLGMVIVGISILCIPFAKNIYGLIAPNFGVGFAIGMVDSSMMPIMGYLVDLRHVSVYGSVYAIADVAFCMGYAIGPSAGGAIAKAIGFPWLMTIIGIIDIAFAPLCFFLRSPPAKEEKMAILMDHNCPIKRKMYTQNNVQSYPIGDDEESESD
# VGLUT2 [3] = target: T1, VGLUT2; assay: Val-evoked [3H]L-glutamate uptake by proteoliposomes, […] min
# VNUT = target: T2, VNUT (Homo sapiens, UniProt Q9BYT1); assay: Val-evoked […]ATP uptake by proteoliposomes; settings: 10 mM Cl-, 0.1 mM ATP, pH 7.0, 27 C; prevented by high Cl-; reversible
# T2 sequence (Q9BYT1 1-436): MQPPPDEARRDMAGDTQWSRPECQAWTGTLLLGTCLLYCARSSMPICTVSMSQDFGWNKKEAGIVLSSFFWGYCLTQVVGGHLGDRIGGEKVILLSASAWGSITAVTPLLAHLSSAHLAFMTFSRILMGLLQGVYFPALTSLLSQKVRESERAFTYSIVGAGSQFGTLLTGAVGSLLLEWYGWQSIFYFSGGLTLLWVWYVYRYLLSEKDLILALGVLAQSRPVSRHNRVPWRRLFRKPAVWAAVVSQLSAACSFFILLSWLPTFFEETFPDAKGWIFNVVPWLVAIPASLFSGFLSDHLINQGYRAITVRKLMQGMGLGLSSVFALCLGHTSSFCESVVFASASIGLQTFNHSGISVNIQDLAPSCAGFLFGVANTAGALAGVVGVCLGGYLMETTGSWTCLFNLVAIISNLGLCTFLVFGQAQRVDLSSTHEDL
# VGAT = target: T3, VGAT (Rattus norvegicus, UniProt O35458); assay: GABA uptake by proteoliposomes
# T3 sequence (O35458 1-525): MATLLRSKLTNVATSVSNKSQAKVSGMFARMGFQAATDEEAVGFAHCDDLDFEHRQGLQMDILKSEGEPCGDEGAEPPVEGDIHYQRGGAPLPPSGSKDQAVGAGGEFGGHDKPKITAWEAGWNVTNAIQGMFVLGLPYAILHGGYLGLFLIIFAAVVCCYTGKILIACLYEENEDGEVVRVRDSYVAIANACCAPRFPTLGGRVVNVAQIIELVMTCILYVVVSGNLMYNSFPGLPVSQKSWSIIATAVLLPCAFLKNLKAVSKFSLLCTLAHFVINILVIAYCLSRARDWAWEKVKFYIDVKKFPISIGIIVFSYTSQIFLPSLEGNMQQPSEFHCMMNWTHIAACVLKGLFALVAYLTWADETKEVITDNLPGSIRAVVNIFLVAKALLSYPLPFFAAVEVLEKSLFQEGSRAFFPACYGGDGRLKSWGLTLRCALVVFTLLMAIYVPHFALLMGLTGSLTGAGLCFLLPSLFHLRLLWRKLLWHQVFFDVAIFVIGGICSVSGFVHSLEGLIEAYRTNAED
structure (smiles),measurement,setting,value
C[C@@H](O)CC(=O)O [3-hydroxybutyrate],dose-dependent inhibition,VGLUT2 [1],ketone bodies (acetoacetate and 3-hydroxybutyrate) inhibited glutamate transport
Cc1cc(-c2ccc(/N=N/c3ccc4c(S(=O)(=O)O)cc(S(=O)(=O)O)c(N)c4c3O)c(C)c2)ccc1/N=N/c1ccc2c(S(=O)(=O)O)cc(S(=O)(=O)O)c(N)c2c1O [Evans blue],"Val-evoked [3H]L-glutamate uptake by proteoliposomes, 1 min",VGLUT2 [2],sensitivity to Evans blue and diisothiocyanostilbene disulfonic acid (DIDS)
CC(=O)CC(=O)O [acetoacetate],pH-driven [3H]serotonin uptake by proteoliposomes,VMAT2,partially purified VMAT2 was found to be entirely independent of Cl^− and acetoacetate
same,IC50,VGLUT2 [3],200 µM
same,dose-dependent inhibition,VNUT,uptake of ATP by VNUT was similarly inhibited by acetoacetate
same,IC50,VGAT,> 5000 µM
CC(=O)C(=O)O [pyruvate],dose-dependent inhibition,VGLUT2 [1],"pyruvate, an intermediate in the glycolytic pathway also inhibited glutamate transport"
